US11639343B2, “Compounds targeting and degrading BCR-ABL protein and its antitumor application” (ShanghaiTech University, priority 2019, dated 2023)

Columns and labels:
K562 (BCR-ABL+) cells = assay: CCK-8 proliferation inhibition, K562 cells; type: cell-based, human; settings: Homo sapiens, K562, 48 h, CCK-8, 48 hours of drug treatment; read-out: Proliferative inhibitory activity (IC50, nM) K562 (BCR-ABL+);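 further: Ten-point threefold dilution series starting at 10 µM, absorbance at 450 nm after 2 h with CCK-8, DMSO as negative control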
U937 (BCR-ABL-) cells = assay: CCK-8 proliferation inhibition, U937 cells; type: cell-based, human; settings: Homo sapiens, U-937; CCK-8, 48 hours of drug treatment, highest concentration 10 μM; read-out: Proliferative inhibitory activity (IC50, nM) U937 (BCR-ABL-);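 further: Ten-point threefold dilution series, absorbance at 450 nm after 2 h with CCK-8 reagent, DMSO as negative control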
HEK293 (BCR-ABL-) cells = assay: CCK-8 proliferation inhibition, HEK293 cells; settings: Homo sapiens, HEK293, 48 h, read-out: Proliferative inhibitory activity (IC50, nM) HEK293 (BCR-ABL-);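 further: Ten-point threefold dilution series starting at 10 µM, CCK-8 absorbance at 450 nm read after 2 h reagent incubation, DMSO-treated cells as negative control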
c-ABL protein = c-ABL protein (Homo sapiens, UniProt P00519); assay: Western blot degradation of c-ABL in K562 cells; type: cell-based; set-up: Western blot was used to detect the expression of BCR-ABL and c-ABL protein in K562 cells; endogenous in cells; host or cells: K562; settings: 16 hours, 1 nM-10 μM
c-ABL protein, sequence (P00519 whole entry): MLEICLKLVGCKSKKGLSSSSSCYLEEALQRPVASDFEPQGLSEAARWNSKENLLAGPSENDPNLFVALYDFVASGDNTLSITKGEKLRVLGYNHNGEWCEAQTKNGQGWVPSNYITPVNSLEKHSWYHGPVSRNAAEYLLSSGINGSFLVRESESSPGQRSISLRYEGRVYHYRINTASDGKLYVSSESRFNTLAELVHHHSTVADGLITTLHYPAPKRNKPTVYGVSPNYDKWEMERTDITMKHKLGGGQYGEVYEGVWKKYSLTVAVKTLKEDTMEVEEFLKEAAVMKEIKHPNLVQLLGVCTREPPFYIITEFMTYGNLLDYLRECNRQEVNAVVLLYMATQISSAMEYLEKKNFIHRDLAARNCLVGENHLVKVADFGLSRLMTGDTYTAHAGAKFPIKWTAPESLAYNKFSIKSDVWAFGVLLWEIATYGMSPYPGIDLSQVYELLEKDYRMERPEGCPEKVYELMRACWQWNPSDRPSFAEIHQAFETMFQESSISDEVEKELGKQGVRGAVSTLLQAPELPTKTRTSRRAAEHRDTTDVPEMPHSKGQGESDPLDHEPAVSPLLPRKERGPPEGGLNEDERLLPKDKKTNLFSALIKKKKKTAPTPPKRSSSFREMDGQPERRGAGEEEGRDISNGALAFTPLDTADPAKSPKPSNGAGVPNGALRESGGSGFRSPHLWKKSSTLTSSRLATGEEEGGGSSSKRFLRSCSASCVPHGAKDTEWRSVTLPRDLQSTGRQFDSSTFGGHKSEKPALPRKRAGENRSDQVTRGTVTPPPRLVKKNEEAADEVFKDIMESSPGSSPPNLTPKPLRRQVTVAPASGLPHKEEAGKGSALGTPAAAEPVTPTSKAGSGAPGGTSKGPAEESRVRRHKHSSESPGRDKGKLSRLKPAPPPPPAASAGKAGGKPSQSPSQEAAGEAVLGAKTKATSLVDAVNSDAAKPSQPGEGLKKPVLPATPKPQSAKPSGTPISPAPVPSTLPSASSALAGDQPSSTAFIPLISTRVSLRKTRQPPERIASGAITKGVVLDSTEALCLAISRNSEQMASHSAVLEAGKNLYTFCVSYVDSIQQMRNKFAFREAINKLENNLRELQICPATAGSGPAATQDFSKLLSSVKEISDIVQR
Method: (§1) (1) Cell seed: K562 cells were added to the 24 well plates, with a cell density of 3×10^5/ml and a total volume of 1.5 ml; Five concentration gradients, 1 nm, 10 nm, 100 nm, 1 μM, and 10 μM, were respectively set for PROTAD series compounds and comparative examples compounds (Dasa-6-2-2-6-VHL, Dasa-6-2-6-CRBN). […] After 16 hours of drug treatment, the cells were collected in 1.5 ml ep tube, centrifuged at 3000 rpm for 3 minutes, and then added 30 μL PBS and 30 ul 2×SDS to cell precipitated, lysate Heat at 100° C. for 5 minutes, then place on ice for 5 minutes, centrifuged at 10000 rpm for 5 minutes, and take the supernatant as the total protein extracted. The protein concentration was determined by the Bradford method. After each sample was at the same concentration, bromophenol blue was added as the sample indicator.
(§2) (2) Electrophoresis: the starting voltage of the BioRad electrophoresis instrument was 80V, and as the dye enters the separation gel, the voltage was adjusted to 120V;
(§3) (3) Film transfer: prepare filter paper and nitrocellulose membrane with the corresponding size of the gel, filter paper, and NC film were soaked in transfer electrophoresis buffer.
(§4) DC50 (concentration required to degrade protein by half) were calculated based on the intensity from western blot, and data were analyzed via Prism GraphPad with non-linear regression.

BCR-ABL protein = BCR-ABL protein (Homo sapiens, UniProt P00519); assay: Western blot degradation of BCR-ABL in K562 cells; type: cell-based; set-up: Western blot was used to detect the expression of BCR-ABL and c-ABL protein in K562 cells; BCR (fusion partner, P11274); endogenous in cells; host or cells: K562; the other entry of the earlier key: BCR (P11274, Breakpoint cluster region protein); settings: 16 hours, 1 nM-10 μM
BCR-ABL protein, sequence (P00519 with tags, fused parts or gaps): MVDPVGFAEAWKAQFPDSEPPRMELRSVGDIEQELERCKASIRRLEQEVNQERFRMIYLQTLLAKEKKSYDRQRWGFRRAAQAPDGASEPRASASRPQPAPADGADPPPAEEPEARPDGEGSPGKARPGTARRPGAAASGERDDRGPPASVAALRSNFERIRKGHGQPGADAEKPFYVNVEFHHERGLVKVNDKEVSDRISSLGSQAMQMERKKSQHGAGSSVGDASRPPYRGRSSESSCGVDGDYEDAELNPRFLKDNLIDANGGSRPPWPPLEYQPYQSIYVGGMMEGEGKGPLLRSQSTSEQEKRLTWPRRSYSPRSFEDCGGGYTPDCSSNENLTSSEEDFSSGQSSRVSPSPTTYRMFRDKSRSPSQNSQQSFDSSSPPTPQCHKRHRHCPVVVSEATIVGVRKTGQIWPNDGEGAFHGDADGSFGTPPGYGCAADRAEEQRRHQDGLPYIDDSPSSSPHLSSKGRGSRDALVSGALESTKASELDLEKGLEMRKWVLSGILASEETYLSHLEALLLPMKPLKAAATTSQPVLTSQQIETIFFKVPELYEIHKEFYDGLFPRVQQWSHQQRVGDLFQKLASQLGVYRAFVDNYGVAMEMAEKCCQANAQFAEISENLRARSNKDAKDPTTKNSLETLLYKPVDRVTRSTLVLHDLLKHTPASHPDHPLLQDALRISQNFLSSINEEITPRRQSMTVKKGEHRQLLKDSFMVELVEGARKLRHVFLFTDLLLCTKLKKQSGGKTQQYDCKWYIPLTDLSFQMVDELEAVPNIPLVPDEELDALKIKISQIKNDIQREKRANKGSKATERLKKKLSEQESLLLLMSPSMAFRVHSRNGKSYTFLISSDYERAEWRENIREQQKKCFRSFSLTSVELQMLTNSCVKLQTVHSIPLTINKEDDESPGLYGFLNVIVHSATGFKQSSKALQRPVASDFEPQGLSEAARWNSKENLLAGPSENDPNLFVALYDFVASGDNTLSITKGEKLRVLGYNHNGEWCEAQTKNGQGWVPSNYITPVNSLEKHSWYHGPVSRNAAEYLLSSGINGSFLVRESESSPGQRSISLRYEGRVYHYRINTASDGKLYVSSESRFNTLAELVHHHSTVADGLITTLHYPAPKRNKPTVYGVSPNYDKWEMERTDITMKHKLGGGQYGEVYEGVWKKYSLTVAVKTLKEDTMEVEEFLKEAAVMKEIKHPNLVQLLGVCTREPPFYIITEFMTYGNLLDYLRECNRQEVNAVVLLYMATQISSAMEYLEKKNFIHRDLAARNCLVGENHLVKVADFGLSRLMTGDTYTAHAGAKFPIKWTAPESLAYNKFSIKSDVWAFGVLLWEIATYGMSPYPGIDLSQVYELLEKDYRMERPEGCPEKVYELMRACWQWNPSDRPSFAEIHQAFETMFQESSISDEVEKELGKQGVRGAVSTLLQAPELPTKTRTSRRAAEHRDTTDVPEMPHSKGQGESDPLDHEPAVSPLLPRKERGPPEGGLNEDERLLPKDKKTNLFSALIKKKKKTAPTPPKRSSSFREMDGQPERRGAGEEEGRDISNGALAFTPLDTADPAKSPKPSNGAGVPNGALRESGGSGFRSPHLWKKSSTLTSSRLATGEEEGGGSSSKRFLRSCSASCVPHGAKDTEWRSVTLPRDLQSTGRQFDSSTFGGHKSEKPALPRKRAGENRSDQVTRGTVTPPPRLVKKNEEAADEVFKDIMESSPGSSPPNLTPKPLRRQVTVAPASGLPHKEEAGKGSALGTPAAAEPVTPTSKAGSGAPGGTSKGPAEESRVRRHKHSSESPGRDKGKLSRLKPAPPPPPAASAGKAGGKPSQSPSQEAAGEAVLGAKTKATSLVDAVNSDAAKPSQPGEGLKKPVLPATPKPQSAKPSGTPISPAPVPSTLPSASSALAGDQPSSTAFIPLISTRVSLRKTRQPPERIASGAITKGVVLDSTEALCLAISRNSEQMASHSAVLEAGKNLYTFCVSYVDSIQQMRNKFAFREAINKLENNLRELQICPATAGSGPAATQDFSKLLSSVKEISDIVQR
Method: as §1, §2, §3, §4

Work on `Cc1nc(Nc2ncc(C(=O)Nc3c(C)cccc3Cl)s2)cc(N2CCN(C(=O)CCCCCNc3cccc4c3C(=O)N(C3CCC(=O)NC3=O)C4=O)CC2)n1` (stereo not drawn) [SIAIS151075, N-(2-chloro-6-methylphenyl)-2-((6-(4-(6-((2-(2,6-dioxopiperidin-3-yl)-1,3-dioxoisoindolin-4-yl)amino)hexanoyl)piperazin-1-yl)-2-methylpyrimidin-4-yl)amino)thiazole-5-carboxamide] yielded an IC50 (K562 (BCR-ABL+) cells) of 0.03 nM, an IC50 (U937 (BCR-ABL-) cells) greater than 10000 nM and an IC50 (HEK293 (BCR-ABL-) cells) greater than 10000 nM. The DC50 (c-ABL protein) was 1 to 10 nM and the DC50 (BCR-ABL protein) was 1 to 10 nM.

In the case of `Cc1nc(Nc2ncc(C(=O)Nc3c(C)cccc3Cl)s2)cc(N2CCN(C(=O)CCOCCOCCOCCOCCC(=O)N[C@H](C(=O)N3C[C@H](O)C[C@H]3C(=O)NCc3ccc(-c4scnc4C)cc3)C(C)(C)C)CC2)n1` [SIAIS151078, N-(2-chloro-6-methylphenyl)-2-((6-(4-((S)-18-((2S,4R)-4-hydroxy-2-((4-(4-methylthiazol-5-yl)benzyl)carbamoyl)pyrrolidine-1-carbonyl)-19,19-dimethyl-16-oxo-4,7,10,13-tetraoxa-17-azaicosanoyl)piperazin-1-yl)-2-methylpyrimidin-4-yl)amino)thiazole-5-carboxamide], the IC50 (K562 (BCR-ABL+) cells) is reported as 2160 nM, the IC50 (U937 (BCR-ABL-) cells) is reported as greater than 10000 nM and the IC50 (HEK293 (BCR-ABL-) cells) is reported as greater than 10000 nM. For the same molecule, the DC50 (c-ABL protein) was greater than 1000 nM and the DC50 (BCR-ABL protein) was 100 to 1000 nM.

`COc1cc(Nc2c(C#N)cnc3cc(OCCCN4CCN(C(=O)CCOCCOCCNc5cccc6c5C(=O)N(C5CCC(=O)NC5=O)C6=O)CC4)c(OC)cc23)c(Cl)cc1Cl` (stereo not drawn) [SIAIS151158, 4-((2,4-dichloro-5-methoxyphenyl)amino)-7-(3-(4-(3-(2-(2-((2-(2,6-dioxopiperidin-3-yl)-1,3-dioxoisoindolin-4-yl)amino)ethoxy)ethoxy)propanoyl)piperazin-1-yl)propoxy)-6-methoxyquinoline-3-carbonitrile] was tested, and the IC50 (K562 (BCR-ABL+) cells) was 3130 nM, the IC50 (U937 (BCR-ABL-) cells) was greater than 10000 nM and the IC50 (HEK293 (BCR-ABL-) cells) was greater than 10000 nM. For the same molecule, the DC50 (c-ABL protein) was 10 to 100 nM and the DC50 (BCR-ABL protein) was 10 to 100 nM.

With `COc1cc(Nc2c(C#N)cnc3cc(OCCCN4CCN(C(=O)CCOCCOCCOCCNc5cccc6c5C(=O)N(C5CCC(=O)NC5=O)C6=O)CC4)c(OC)cc23)c(Cl)cc1Cl` (stereo not drawn) [SIAIS151159, 4-((2,4-dichloro-5-methoxyphenyl)amino)-7-(3-(4-(3-(2-(2-(2-((2-(2,6-dioxopiperidin-3-yl)-1,3-dioxoisoindolin-4-yl)amino)ethoxy)ethoxy)ethoxy)propanoyl)piperazin-1-yl)propoxy)-6-methoxyquinoline-3-carbonitrile] the IC50 (K562 (BCR-ABL+) cells) was 4260 nM, the IC50 (U937 (BCR-ABL-) cells) was greater than 10000 nM and the IC50 (HEK293 (BCR-ABL-) cells) was greater than 10000 nM. For the same molecule, the DC50 (c-ABL protein) was 10 to 100 nM and the DC50 (BCR-ABL protein) was 10 to 100 nM.

`COc1cc(Nc2c(C#N)cnc3cc(OCCCN4CCN(C(=O)CCOCCOCCOCCOCCNc5cccc6c5C(=O)N(C5CCC(=O)NC5=O)C6=O)CC4)c(OC)cc23)c(Cl)cc1Cl` (stereo not drawn) [SIAIS151160, 4-((2,4-dichloro-5-methoxyphenyl)amino)-7-(3-(4-(1-((2-(2,6-dioxopiperidin-3-yl)-1,3-dioxoisoindolin-4-yl)amino)-3,6,9,12-tetraoxapentadecan-15-oyl)piperazin-1-yl)propoxy)-6-methoxyquinoline-3-carbonitrile] showed an IC50 (K562 (BCR-ABL+) cells) of 4650 nM, an IC50 (U937 (BCR-ABL-) cells) greater than 10000 nM and an IC50 (HEK293 (BCR-ABL-) cells) greater than 10000 nM. It also gave a DC50 (c-ABL protein) of 10 to 100 nM and a DC50 (BCR-ABL protein) of 10 to 100 nM.

For `COc1cc(Nc2c(C#N)cnc3cc(OCCCN4CCN(C(=O)CCOCCOCCOCCOCCOCCNc5cccc6c5C(=O)N(C5CCC(=O)NC5=O)C6=O)CC4)c(OC)cc23)c(Cl)cc1Cl` (stereo not drawn) [SIAIS151161, 4-((2,4-dichloro-5-methoxyphenyl)amino)-7-(3-(4-(1-((2-(2,6-dioxopiperidin-3-yl)-1,3-dioxoisoindolin-4-yl)amino)-3,6,9,12,15-pentaoxaoctadecan-18-oyl)piperazin-1-yl)propoxy)-6-methoxyquinoline-3-carbonitrile], the IC50 (K562 (BCR-ABL+) cells) was 7260 nM, the IC50 (U937 (BCR-ABL-) cells) was greater than 10000 nM and the IC50 (HEK293 (BCR-ABL-) cells) was greater than 10000 nM. It also gave a DC50 (c-ABL protein) of 100 to 1000 nM and a DC50 (BCR-ABL protein) of 100 to 1000 nM.

Molecule `COc1cc(Nc2c(C#N)cnc3cc(OCCCN4CCN(C(=O)CCCNc5cccc6c5C(=O)N(C5CCC(=O)NC5=O)C6=O)CC4)c(OC)cc23)c(Cl)cc1Cl` (stereo not drawn) [SIAIS151162, 4-((2,4-dichloro-5-methoxyphenyl)amino)-7-(3-(4-(4-((2-(2,6-dioxopiperidin-3-yl)-1,3-dioxoisoindolin-4-yl)amino)butanoyl)piperazin-1-yl)propoxy)-6-methoxyquinoline-3-carbonitrile] has an IC50 (K562 (BCR-ABL+) cells) of 712 nM, an IC50 (U937 (BCR-ABL-) cells) greater than 10000 nM and an IC50 (HEK293 (BCR-ABL-) cells) greater than 10000 nM. The DC50 (c-ABL protein) was 10 to 100 nM and the DC50 (BCR-ABL protein) was 10 to 100 nM.

Molecule `COc1cc(Nc2c(C#N)cnc3cc(OCCCN4CCN(C(=O)CCCCNc5cccc6c5C(=O)N(C5CCC(=O)NC5=O)C6=O)CC4)c(OC)cc23)c(Cl)cc1Cl` (stereo not drawn) [SIAIS151163, 4-((2,4-dichloro-5-methoxyphenyl)amino)-7-(3-(4-(5-((2-(2,6-dioxopiperidin-3-yl)-1,3-dioxoisoindolin-4-yl)amino)pentanoyl)piperazin-1-yl)propoxy)-6-methoxyquinoline-3-carbonitrile] has an IC50 (K562 (BCR-ABL+) cells) of 126 nM, an IC50 (U937 (BCR-ABL-) cells) greater than 10000 nM and an IC50 (HEK293 (BCR-ABL-) cells) greater than 10000 nM. The DC50 (c-ABL protein) was 10 to 100 nM and the DC50 (BCR-ABL protein) was 10 to 100 nM.

Molecule `COc1cc(Nc2c(C#N)cnc3cc(OCCCN4CCN(C(=O)CCCCCNc5cccc6c5C(=O)N(C5CCC(=O)NC5=O)C6=O)CC4)c(OC)cc23)c(Cl)cc1Cl` (stereo not drawn) [SIAIS151166, 4-((2,4-dichloro-5-methoxyphenyl)amino)-7-(3-(4-(6-((2-(2,6-dioxopiperidin-3-yl)-1,3-dioxoisoindolin-4-yl)amino)hexanoyl)piperazin-1-yl)propoxy)-6-methoxyquinoline-3-carbonitrile] has an IC50 (K562 (BCR-ABL+) cells) of 894 nM, an IC50 (U937 (BCR-ABL-) cells) greater than 10000 nM and an IC50 (HEK293 (BCR-ABL-) cells) greater than 10000 nM. It also gave a DC50 (c-ABL protein) of 10 to 100 nM and a DC50 (BCR-ABL protein) of 10 to 100 nM.

`COc1cc(Nc2c(C#N)cnc3cc(OCCCN4CCN(C(=O)CCCCCCNc5cccc6c5C(=O)N(C5CCC(=O)NC5=O)C6=O)CC4)c(OC)cc23)c(Cl)cc1Cl` (stereo not drawn) [SIAIS151167, 4-((2,4-dichloro-5-methoxyphenyl)amino)-7-(3-(4-(7-((2-(2,6-dioxopiperidin-3-yl)-1,3-dioxoisoindolin-4-yl)amino)heptanoyl)piperazin-1-yl)propoxy)-6-methoxyquinoline-3-carbonitrile] gave an IC50 (K562 (BCR-ABL+) cells) of 3650 nM, an IC50 (U937 (BCR-ABL-) cells) greater than 10000 nM and an IC50 (HEK293 (BCR-ABL-) cells) greater than 10000 nM. It also gave a DC50 (c-ABL protein) of 10 to 100 nM and a DC50 (BCR-ABL protein) of 10 to 100 nM.

`Cc1nc(Nc2ncc(C(=O)Nc3c(C)cccc3Cl)s2)cc(N2CCN(C(=O)CCC(=O)N[C@H](C(=O)N3C[C@H](O)C[C@H]3C(=O)NCc3ccc(-c4scnc4C)cc3)C(C)(C)C)CC2)n1` [SIAIS151174, N-(2-chloro-6-methylphenyl)-2-((6-(4-(4-(((S)-1-((2S,4R)-4-hydroxy-2-((4-(4-methylthiazol-5-yl)benzyl)carbamoyl)pyrrolidin-1-yl)-3,3-dimethyl-1-oxobutan-2-yl)amino)-4-oxobutanoyl)piperazin-1-yl)-2-methylpyrimidin-4-yl)amino)thiazole-5-carboxamide] gave an IC50 (K562 (BCR-ABL+) cells) of 78 nM, an IC50 (U937 (BCR-ABL-) cells) greater than 10000 nM and an IC50 (HEK293 (BCR-ABL-) cells) greater than 10000 nM. For the same molecule, the DC50 (c-ABL protein) was 100 to 1000 nM and the DC50 (BCR-ABL protein) was 100 to 1000 nM.

With `Cc1nc(Nc2ncc(C(=O)Nc3c(C)cccc3Cl)s2)cc(N2CCN(C(=O)CCCC(=O)N[C@H](C(=O)N3C[C@H](O)C[C@H]3C(=O)NCc3ccc(-c4scnc4C)cc3)C(C)(C)C)CC2)n1` [SIAIS151175, N-(2-chloro-6-methylphenyl)-2-((6-(4-(5-(((S)-1-((2S,4R)-4-hydroxy-2-((4-(4-methylthiazol-5-yl)benzyl)carbamoyl)pyrrolidin-1-yl)-3,3-dimethyl-1-oxobutan-2-yl)amino)-5-oxopentanoyl)piperazin-1-yl)-2-methylpyrimidin-4-yl)amino)thiazole-5-carboxamide] the IC50 (K562 (BCR-ABL+) cells) was 87 nM, the IC50 (U937 (BCR-ABL-) cells) was greater than 10000 nM and the IC50 (HEK293 (BCR-ABL-) cells) was 3890 nM. For the same molecule, the DC50 (c-ABL protein) was 100 to 1000 nM and the DC50 (BCR-ABL protein) was 10 to 100 nM.
